In patent US5230998A, “Method for the prescreening of drugs targeted to the V3 hypervariable loop of the HIV-1 envelope glycoprotein gp 120” (priority 1991, dated 1993):

Legend:
[1] = test system: V3 hypervariable loop peptides from gp120 from 21 distinct HIV-1 isolates (clones); assay: Inhibition of the reaction of V3 hypervariable loop peptides from 21 HIV-1 isolates with homologous anti-peptide antisera; assay type: binding; conditions: 21 HIV-1 isolates (clones); antisera 1:1,000; FIG. 7A, 7B
Source text: FIGS. 7A and 7B are bar graphs depicting the inhibitory effect of deuteroporphyrin IX,2,4 (4,2) hydroxyethylvinyl (FIG. 7A) and of meso-tetra(4-carboxyphenyl)porphine (FIG. 7B) on the reaction of full-length V3 hypervariable loop peptides from gp120 from 21 distinct HIV-1 isolates (clones) with homologous anti-peptide antisera. Peptide coated wells of polystyrene plates were reacted in the presence and absence of the inhibitory compounds with the respective rabbit antisera diluted 1:1,000, and the attachment of rabbit IgG was subsequently determined using ^125 I-labeled anti-rabbit IgG. […]
(§1) To define sites on gp120/gp41 reacting with ATA, the inhibitory effect of this compound was studied by RIA tests using gp120- and gp160-coated wells, respectively, and antisera (final dilutions 1:150) against synthetic peptides from the entire sequence of gp120/gp41 of HIV-1 BH 10. […] Attached rabbit IgG was detected using ^125 I-labeled anti-rabbit IgG, as described before (Neurath et al., 1990, J. Gen. Virol., 71, 85-95). […]
(§2) The inhibitory effect of ATA and of other compounds on the reaction between antibodies with predetermined specificity and gp120 (or synthetic peptides derived from it) was determined from the formula: [formula] An analogous formula was used to calculate the percentage of inhibition from optical density readings resulting from ELISA tests.

[2] = test system: HIV-1 isolates IIIB, MN, SF2 and RF; assay: Antiviral activity of porphyrin derivatives for distinct HIV-1 isolates in promonocytic U937 cells (FIG. 12A); assay type: cell-based
Experimental: (§3) FIG. 12A and FIG. 12B are graphs depicting antiviral activity of selected porphyrin derivatives for distinct HIV-1 isolates in T-lymphocytic (MT-2) (FIG. 12B) and a promonocytic (U937) (FIG. 12A) cell lines. […] Therefore, the antiviral activity against HIV-1 RF could not be tested in this cell line. Note that the higher the value of EC50, the less efficient is the drug for inhibiting HIV-1 replication.
(§4) Four of the porphyrin derivatives (see FIG. 12) were tested for their inhibiting activity and the replication of four distinct HIV-1 isolates: IIIB, MN, SF2 and RF in two different cell lines, U937 and MT-2.

[3] = test system: HIV-1 isolates IIIB, MN, SF2 and RF; assay: Antiviral activity of porphyrin derivatives for distinct HIV-1 isolates in T-lymphocytic MT-2 cells (FIG. 12B); assay type: cell-based
Experimental: as §3, §4

V3 peptide from HIV-1 SC = target: T1, V3 peptide from HIV-1 SC (Human immunodeficiency virus type 1 (SC ISOLATE), UniProt P05878); assay: Inhibition of the reaction of antibodies with the V3 peptide from HIV-1 SC (FIG. 7B); assay type: binding; conditions: as compared with HXB-2 and HXB-3 V3 peptides
T1 construct: cut from Env gp160
T1 sequence (P05878 296-330): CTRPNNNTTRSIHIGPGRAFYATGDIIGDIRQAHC
Source text: FIGS. 7A and 7B are bar graphs depicting the inhibitory effect of deuteroporphyrin IX,2,4 (4,2) hydroxyethylvinyl (FIG. 7A) and of meso-tetra(4-carboxyphenyl)porphine (FIG. 7B) on the reaction of full-length V3 hypervariable loop peptides from gp120 from 21 distinct HIV-1 isolates (clones) with homologous anti-peptide antisera. Peptide coated wells of polystyrene plates were reacted in the presence and absence of the inhibitory compounds with the respective rabbit antisera diluted 1:1,000, and the attachment of rabbit IgG was subsequently determined using ^125 I-labeled anti-rabbit IgG.
as §1, §2

[4] = target: T2, HIV-1 gp120 V3 hypervariable loop (Human immunodeficiency virus type 1 group M subtype B, UniProt P03375); assay: biochemical; assay type: binding; conditions: excess of serum proteins in medium
T2 construct: Polystyrene plates coated with recombinant gp120 and gp160, respectively; purchased American Bio-Technologies, Inc., Cambridge, Mass; host or cells: baculovirus expression system
Experimental: Wells of 96 well polystyrene plates (Immulon 2, Dynatech Laboratories, Inc., Chantilly, Va.) were coated with synthetic peptides (200 μl; 20μg/ml in 0.1 M Tris-HCl, pH 8.8) overnight at 20° C. The peptides were from the sequence of HIV-1, clone BH 10 envelope glycoproteins gp120 and gp41 (Neurath, A. R., Strick, N., and Lee, E. Y. S. (1990), "B-cell Epitope Mapping of Human Immunodeficiency virus (HIV-1) Envelope Glycoprotein with Long (19 to 36-residue) Synthetic Peptides", J. Gen. Virol., 71., 85-95) and from V3 hypervariable loops of 21 distinct HIV-1 isolates (clones) Neurath, A. R., and Strick, N., (1990), "Confronting the Hypervariability of an Immunodominant Epitope Eliciting Virus Neutralizing Antibodies from the Envelope Glycoprotein of the Human Immunodeficiency Virus Type 1 (HIV-1)", Molec. Immunol., 27, 539-549. The latter peptides corresponded to full-length V3 loops generated by disulfide bonds between N- and C- terminal cysteine residues. After washing with 0.14 M NaCl, 0.01 M Tris, 0.02% NaN3 (TS), the wells were postcoated with a mixture of bovine serum albumin (BSA) and gelatine (10 and 2.5 mg/ml, respectively) in TS. BSA was omitted from the postcoating solution for RIA tests in which antibodies to ATA were used. Polystyrene plates coated with recombinant gp120 and gp160, respectively, (500 ng/well; from American Bio-Technologies, Inc., Cambridge, Mass. and MicroGeneSys, Inc., West Haven, Conn., respectively) were also used for RIA and ELISA tests.
To define sites on gp120/gp41 reacting with ATA, the inhibitory effect of this compound was studied by RIA tests using gp120- and gp160-coated wells, respectively, and antisera (final dilutions 1:150) against synthetic peptides from the entire sequence of gp120/gp41 of HIV-1 BH 10. The preparation and biological properties of these antisera were described elsewhere (Neurath et al., (1990), J. Gen. Virol., 71, 85-95). Each of the antisera was diluted in a mixture of fetal bovine serum and goat serum (9:1) containing 0.1% Tween 20, adjusted to pH 8. ATA (final concentration 50 μg/ml) was added in one set of assays, but was omitted from a parallel set. After incubation overnight at 25° C., the plates were washed with TS. Attached rabbit IgG was detected using ^125 I-labeled anti-rabbit IgG, as described before (Neurath et al., 1990, J. Gen. Virol., 71, 85-95). Similarly, the inhibitory effect of ATA on the reaction of peptides derived from gp120/gp41 and of peptides derived from V3 hypervariable loops from gp120 of distinct HIV-1 isolates with the respective homologous anti-peptide antisera was studied. In the latter case, antisera were diluted 1:1,000 for the assays.
as §2
Chemicals other than ATA were screened for inhibitory activity essentially as described above. […] Chemicals with inhibitory activity established by the respective immunoassays were screened further for antiviral activity.
Commercially available ATA is a mixture of monomers and polymers of distinct molecular masses (Gonzalez et al., (1979) Biochem. Biophys. Acta, 562, 534-545); Cushman et al., (1991), J. Chem., 34, 329-337). The monomers [molecular mass (M.W.)=422.4 daltons] were separated from the polymers. ATA (20 mg/ml in the form of free acid neutralized with 0.4 M NaOH) was dialyzed against H2 O in a dialysis membrane with a molecular mass cutoff of 500 daltons.

[5] = test system: gp120 V3 hypervariable loop; assay: Binding of gp120 to monoclonal antibodies specific for the V3 hypervariable loop in the absence of other proteins; design: species or system HIV-1; conditions: 20-fold excess over gp120, absence of other proteins
Source text: The inhibitory effect of dextran sulfate on gp120-antibody binding under these conditions was confirmed. The apparently contradictory results concerning binding of dextran sulfate to gp120 obtained by different methods can probably be explained by differences in equilibrium constants defining the binding reaction of gp120 with ATA and dextran sulfate, respectively. […] The relatively weak binding of dextran sulfate to the V3 hypervariable loop may contribute to the ineffectiveness of this substance in inhibiting HIV-1 replication in vivo (Mitsuya et al., (1990), Science, 249, 1533-1544).

[6] = test system: gp120 V3 hypervariable loop; conditions: 20-fold excess over gp120, absence of other proteins; cited from earlier work
[7] = test system: gp120 expressed on the surface of HIV-1-infected cells; conditions: literature; cited from earlier work
HIV-1 [8] = conditions: literature; cited from earlier work
CD4 receptor = conditions: literature; cited from earlier work
[9] = test system: HIV-1 reverse transcriptase; conditions: literature; cited from earlier work
HIV-1 [10] = conditions: literature; cited from earlier work; remark: listed apart in the source

O=C(O)c1ccc(-c2c3nc(c(-c4ccc(C(=O)O)cc4)c4ccc([nH]4)c(-c4ccc(C(=O)O)cc4)c4nc(c(-c5ccc(C(=O)O)cc5)c5ccc2[nH]5)C=C4)C=C3)cc1 [substance #160, meso-tetra (4-carboxyphenyl) porphine]
inhibition of interaction between V3 hypervariable loop peptides and homologous antibodies [1]: inhibited the interaction between V hypervariable loop peptides and homologous antibodies corresponding to all 21 HIV-1 isolates (clones) tested
inhibition of HIV-1 replication in U937 cells [2]: most effective agent with broad specificity
inhibition of HIV-1 replication in MT-2 cells [3]: most effective agent with broad specificity
inhibitory activity on the reaction of antibodies with the V3 peptide (V3 peptide from HIV-1 SC): relatively low inhibitory activity

deuteroporphyrin IX, 2,4 (4,2) hydroxy-ethyl vinyl [substance #151]
inhibition of interaction between V3 hypervariable loop peptides and homologous antibodies [1]: inhibited the interaction between V hypervariable loop peptides and homologous antibodies corresponding to all 21 HIV-1 isolates (clones) tested

dextran sulfate
reaction with the V3 hypervariable loop as determined by RIA (ELISA) tests [4]: did not react with the V3 hypervariable loop
inhibitory effect on gp120-antibody binding [5]: confirmed
blocking of binding of gp120 to monoclonal antibodies [6]: blocked
inhibition of the reaction of gp120 on infected cells with monoclonal anti-gp120 antibodies [7]: inhibit the reaction of gp120 expressed on the surface of HIV-1-infected cells with monoclonal anti-gp120 antibodies
inhibition of HIV-1 replication in vivo (HIV-1 [8]): ineffectiveness

Cc1cc(-c2ccc(/N=N/c3ccc4c(S(=O)(=O)O)cc(S(=O)(=O)O)c(N)c4c3O)c(C)c2)ccc1/N=N/c1ccc2c(S(=O)(=O)O)cc(S(=O)(=O)O)c(N)c2c1O [substance #28, Evans Blue]
reaction with the V3 hypervariable loop as determined by RIA (ELISA) tests [4]: did not react with the V3 hypervariable loop
inhibition of the interaction with CD4 receptor (CD4 receptor): inhibited the interaction of the CD4 receptor for HIV-1
inhibition of the reaction of gp120 on infected cells with monoclonal anti-gp120 antibodies [7]: inhibit the reaction of gp120 expressed on the surface of HIV-1-infected cells with monoclonal anti-gp120 antibodies
inhibition of HIV-1 reverse transcriptase [9]: inhibited the reverse transcriptase of HIV-1

hemin [substance #13]
inhibition of HIV-1 replication / antiviral activity (HIV-1 [10]): anti-HIV-1 activity

Cc1ccc(C(=O)Nc2ccc(S(=O)(=O)O)c3cc(S(=O)(=O)O)cc(S(=O)(=O)O)c23)cc1NC(=O)c1cccc(NC(=O)Nc2cccc(C(=O)Nc3cc(C(=O)Nc4ccc(S(=O)(=O)O)c5cc(S(=O)(=O)O)cc(S(=O)(=O)O)c45)ccc3C)c2)c1 [suramin, reference compound]
inhibition of the reaction of gp120 on infected cells with monoclonal anti-gp120 antibodies [7]: inhibit the reaction of gp120 expressed on the surface of HIV-1-infected cells with monoclonal anti-gp120 antibodies
inhibition of HIV-1 reverse transcriptase [9]: inhibited the reverse transcriptase of HIV-1

CC1=C/C(=C(\c2ccc(N)c(S(=O)(=O)[O-])c2)c2ccc(N)c(S(=O)(=O)O)c2)C=C(S(=O)(=O)[O-])C1=N.[Na+].[Na+] [substance #145, acid fuchsin]
reaction with the V3 hypervariable loop as determined by RIA (ELISA) tests [4]: did not react with the V3 hypervariable loop
inhibition of HIV-1 reverse transcriptase [9]: inhibited the reverse transcriptase of HIV-1
